What was measured:
Type in all cases: in vivo
[1] = test system: bearded (Brdd.) sprangletop (Leptochloa fascicularis); test: Test D flooded paddy plant response; details: Flood, scale 0 to 100 (0 no effect, 100 complete control), 21 days
Description: (§1) Three plastic pots (ca. 16-cm diameter) for each application rate were partially filled with sterilized Tama silt loam soil comprising a 35:50:15 ratio of sand, silt and clay and 2.6% organic matter. Separate plantings for each of the three pots were as follows. Seeds from the U.S. of ducksalad (Heteranthera limosa), umbrella sedge (Cyperus difformis) and purple redstem (Ammannia coccinea), were planted into one 16-cm pot for each rate. Seeds from the U.S. of rice flatsedge (Cyperus iria), bearded (Brdd.) sprangletop (Leptochloa fascicularis), one stand of 9 or 10 water-seeded rice seedlings (Oryza sativa cv. ‘Japonica—M202’), and one stand of 6 transplanted rice seedlings (Oryza sativa cv. ‘Japonica—M202’) were planted into one 16-cm pot for each rate. Seeds from the U.S. of barnyardgrass (Echinochloa crus-galli), late watergrass (Echinochloa oryzicola), early watergrass (Echinochloa oryzoides) and junglerice (Echinochloa colona) were planted into one 16-cm pot for each rate. Plantings were sequential so that crop and weed species were at the 2.0 to 2.5-leaf stage at time of treatment.
(§2) Potted plants were grown in a greenhouse with day/night temperature settings of 30/27° C., and supplemental balanced lighting was provided to maintain a 16-hour photoperiod. Test pots were maintained in the greenhouse until test completion.
(§3) At time of treatment, test pots were flooded to 3 cm above the soil surface, treated by application of test compounds directly to the paddy water, and then maintained at that water depth for the duration of the test. Effects of treatments on rice and weeds were visually evaluated by comparison to untreated controls after 21 days. Plant response ratings, summarized in Table D, are based on a scale of 0 to 100 where 0 is no effect and 100 is complete control. A dash (-) response means no test result.

[2] = test system: early watergrass (Echinochloa oryzoides); test: Test D flooded paddy plant response; details: Flood, scale 0 to 100 (0 no effect, 100 complete control), 21 days
Description: as §1, §2, §3

[3] = test system: junglerice (Echinochloa colona); test: Test D flooded paddy plant response; details: Flood, scale 0 to 100 (0 no effect, 100 complete control), 21 days
Description: as §1, §2, §3

[4] = test system: purple redstem (Ammannia coccinea); test: Test D flooded paddy plant response; details: Flood, scale 0 to 100 (0 no effect, 100 complete control), 21 days
Description: as §1, §2, §3

[5] = test system: transplanted rice seedlings (Oryza sativa cv. ‘Japonica—M202’); test: Test D flooded paddy plant response; details: Flood, scale 0 to 100 (0 no effect, 100 complete control), 21 days
Description: as §1, §2, §3

[6] = test system: umbrella sedge (Cyperus difformis); test: Test D flooded paddy plant response; details: Flood, scale 0 to 100 (0 no effect, 100 complete control), 21 days
Description: as §1, §2, §3

[7] = test system: Russian thistle (Salsola kali); test: Test E pre-/postemergence plant response; details: Preemergence, scale 0 to 100
Summary of the method: (§4)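 Seeds were planted and treated preemergence with compound formulated in a non-phytotoxic solvent mixture containing surfactant; postemergence sprays in the same formulation went onto plants 2 to 18 cm tall (1- to 4-leaf stage). After 14 to 21 days in a greenhouse, injury versus untreated controls was rated visually, 0 (no effect) to 100 (complete control).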

[8] = test system: Virginia (V.) dayflower (Commelina virginica); test: Test E pre-/postemergence plant response; details: scale 0 to 100
Summary of the method: as §4

[9] = test system: common chickweed (Stellaria media); test: Test E pre-/postemergence plant response; details: Preemergence, scale 0 to 100
Summary of the method: as §4

[10] = test system: common sowthistle (Sonchus oleraceous); test: Test E pre-/postemergence plant response; details: scale 0 to 100
Summary of the method: as §4

kochia (Kochia scoparia) = test: Test E pre-/postemergence plant response; details: Preemergence, scale 0 to 100
Summary of the method: as §4

[11] = test system: prickly sida (Sida spinosa); test: Test E pre-/postemergence plant response; details: scale 0 to 100
Summary of the method: as §4

Structure (SMILES): CCCc1cc(-c2ccc(Cl)cc2)nn1-c1c(O)cnn(C)c1=O [Compound 43]
- Plant response rating, Sprangletop, Brdd. ([1]; 16 g ai/ha): 0
- Plant response rating, Sprangletop, Brdd. ([1]; 32 g ai/ha): 0
- Plant response rating, Sprangletop, Brdd. ([1]; 64 g ai/ha): 0
- Plant response rating, Sprangletop, Brdd. ([1]; 125 g ai/ha): 0
- Plant response rating, Sprangletop, Brdd. ([1]; 250 g ai/ha): 20
- Plant response rating, Watergrass, Early ([2]; 16 g ai/ha): 0
- Plant response rating, Watergrass, Early ([2]; 32 g ai/ha): 0
- Plant response rating, Watergrass, Early ([2]; 64 g ai/ha): 60
- Plant response rating, Watergrass, Early ([2]; 125 g ai/ha): 70
- Plant response rating, Watergrass, Early ([2]; 250 g ai/ha): 100
- Plant response rating, Junglerice ([3]; 16 g ai/ha): 0
- Plant response rating, Junglerice ([3]; 32 g ai/ha): 0
- Plant response rating, Junglerice ([3]; 64 g ai/ha): 60
- Plant response rating, Junglerice ([3]; 125 g ai/ha): 100
- Plant response rating, Junglerice ([3]; 250 g ai/ha): 100
- Plant response rating, Redstem, Purple ([4]; 16 g ai/ha): 0
- Plant response rating, Redstem, Purple ([4]; 32 g ai/ha): 0
- Plant response rating, Redstem, Purple ([4]; 64 g ai/ha): 0
- Plant response rating, Redstem, Purple ([4]; 125 g ai/ha): 0
- Plant response rating, Redstem, Purple ([4]; 250 g ai/ha): 0
- Plant response rating, Rice, Transplanted ([5]; 16 g ai/ha): 0
- Plant response rating, Rice, Transplanted ([5]; 32 g ai/ha): 0
- Plant response rating, Rice, Transplanted ([5]; 64 g ai/ha): 0
- Plant response rating, Rice, Transplanted ([5]; 125 g ai/ha): 10
- Plant response rating, Rice, Transplanted ([5]; 250 g ai/ha): 35
- Plant response rating, Sedge, Umbrella ([6]; 16 g ai/ha): 0
- Plant response rating, Sedge, Umbrella ([6]; 32 g ai/ha): 0
- Plant response rating, Sedge, Umbrella ([6]; 64 g ai/ha): 0
- Plant response rating, Sedge, Umbrella ([6]; 125 g ai/ha): 0
- Plant response rating, Sedge, Umbrella ([6]; 250 g ai/ha): 0
- Plant response rating, Thistle, Russian ([7]; 16 g ai/ha): 0
- Plant response rating, Thistle, Russian ([7]; 31 g ai/ha): 0
- Plant response rating, Thistle, Russian ([7]; 62 g ai/ha): 0
- Plant response rating, Dayflower, V. ([8]; 16 g ai/ha, Preemergence): 0
- Plant response rating, Dayflower, V. ([8]; 31 g ai/ha, Preemergence): 0
- Plant response rating, Dayflower, V. ([8]; 62 g ai/ha, Preemergence): 0
- Plant response rating, Dayflower, V. ([8]; Postemergence, 8 g ai/ha): 0
- Plant response rating, Dayflower, V. ([8]; Postemergence, 16 g ai/ha): 0
- Plant response rating, Dayflower, V. ([8]; Postemergence, 31 g ai/ha): 0
- Plant response rating, Dayflower, V. ([8]; Postemergence, 62 g ai/ha): 0
- Plant response rating, Chickweed ([9]; 16 g ai/ha): 0
- Plant response rating, Chickweed ([9]; 31 g ai/ha): 0
- Plant response rating, Chickweed ([9]; 62 g ai/ha): 0
- Plant response rating, Sowthistle ([10]; 16 g ai/ha, Preemergence): 0
- Plant response rating, Sowthistle ([10]; 31 g ai/ha, Preemergence): 0
- Plant response rating, Sowthistle ([10]; 62 g ai/ha, Preemergence): 0
- Plant response rating, Sowthistle ([10]; Postemergence, 8 g ai/ha): 0
- Plant response rating, Sowthistle ([10]; Postemergence, 16 g ai/ha): 0
- Plant response rating, Sowthistle ([10]; Postemergence, 31 g ai/ha): 0
- Plant response rating, Sowthistle ([10]; Postemergence, 62 g ai/ha): 0
- Plant response rating, Kochia (kochia (Kochia scoparia); 16 g ai/ha): 0
- Plant response rating, Kochia (kochia (Kochia scoparia); 31 g ai/ha): 0
- Plant response rating, Kochia (kochia (Kochia scoparia); 62 g ai/ha): 0
- Plant response rating, Prickly Sida ([11]; 16 g ai/ha, Preemergence): 0
- Plant response rating, Prickly Sida ([11]; 31 g ai/ha, Preemergence): 0
- Plant response rating, Prickly Sida ([11]; 62 g ai/ha, Preemergence): 0
- Plant response rating, Prickly Sida ([11]; Postemergence, 8 g ai/ha): 0
- Plant response rating, Prickly Sida ([11]; Postemergence, 16 g ai/ha): 0
- Plant response rating, Prickly Sida ([11]; Postemergence, 31 g ai/ha): 0
- Plant response rating, Prickly Sida ([11]; Postemergence, 62 g ai/ha): 0
